Measured values as given in patent US20150158868A1, “COMPOUNDS USEFUL AS INHIBITORS OF ATR KINASE” (Vertex Pharmaceuticals Incorporated, priority 2013, published 2015).

Tests used:
[1] = test system: HCT116 colorectal cancer cells; test: Cisplatin Sensitization Assay (96 h cell viability MTS); type: cell-based; settings: concentration of compound required to reduce the IC50 of Cisplatin alone by at least 3-fold; HCT116, 96 h MTS
Description: Compounds can be screened for their ability to sensitize HCT116 colorectal cancer cells to Cisplatin using a 96 h cell viability (MTS) assay. […] Compounds and Cisplatin are then both added simultaneously to the cell media in 2-fold serial dilutions from a top final concentration of 10 μM as a full matrix of concentrations in a final cell volume of 200 μl, and the cells are then incubated at 37° C. in 5% CO2. After 96 h, 40 μl of MTS reagent (Promega G358a) is added to each well and the cells are incubated for 1 h at 37° C. in 5% CO2. Finally, absorbance is measured at 490 nm using a SpectraMax Plus 384 reader (Molecular Devices) and the concentration of compound required to reduce the IC50 of Cisplatin alone by at least 3-fold (to 1 decimal place) can be reported.
Compounds with a Cisplatin sensitization value of <0.02 μM are marked with “+++.” Compounds with a Cisplatin sensitization value >0.02 μM but <0.2 μM are marked with “++.” Compounds with a Cisplatin sensitization value >0.2 μM but <5 μM are marked with “+.”

[2] = molecular target: T1, ATR kinase, in the presence of partner proteins ATRIP, CLK2 and TopBP1 (Homo sapiens, UniProt Q13535); test: ATR-Complex Inhibition Assay (radioactive-phosphate incorporation); type: biochemical; settings: Ki(app); 4 nM full-length ATR with ATRIP, CLK2 and TopBP1(A891-S1105), 10 μM ATP, 25° C.
T1 construct: in the presence of 4 nM full-length ATR, 40 nM full-length ATRIP
T1 sequence (Q13535 whole entry): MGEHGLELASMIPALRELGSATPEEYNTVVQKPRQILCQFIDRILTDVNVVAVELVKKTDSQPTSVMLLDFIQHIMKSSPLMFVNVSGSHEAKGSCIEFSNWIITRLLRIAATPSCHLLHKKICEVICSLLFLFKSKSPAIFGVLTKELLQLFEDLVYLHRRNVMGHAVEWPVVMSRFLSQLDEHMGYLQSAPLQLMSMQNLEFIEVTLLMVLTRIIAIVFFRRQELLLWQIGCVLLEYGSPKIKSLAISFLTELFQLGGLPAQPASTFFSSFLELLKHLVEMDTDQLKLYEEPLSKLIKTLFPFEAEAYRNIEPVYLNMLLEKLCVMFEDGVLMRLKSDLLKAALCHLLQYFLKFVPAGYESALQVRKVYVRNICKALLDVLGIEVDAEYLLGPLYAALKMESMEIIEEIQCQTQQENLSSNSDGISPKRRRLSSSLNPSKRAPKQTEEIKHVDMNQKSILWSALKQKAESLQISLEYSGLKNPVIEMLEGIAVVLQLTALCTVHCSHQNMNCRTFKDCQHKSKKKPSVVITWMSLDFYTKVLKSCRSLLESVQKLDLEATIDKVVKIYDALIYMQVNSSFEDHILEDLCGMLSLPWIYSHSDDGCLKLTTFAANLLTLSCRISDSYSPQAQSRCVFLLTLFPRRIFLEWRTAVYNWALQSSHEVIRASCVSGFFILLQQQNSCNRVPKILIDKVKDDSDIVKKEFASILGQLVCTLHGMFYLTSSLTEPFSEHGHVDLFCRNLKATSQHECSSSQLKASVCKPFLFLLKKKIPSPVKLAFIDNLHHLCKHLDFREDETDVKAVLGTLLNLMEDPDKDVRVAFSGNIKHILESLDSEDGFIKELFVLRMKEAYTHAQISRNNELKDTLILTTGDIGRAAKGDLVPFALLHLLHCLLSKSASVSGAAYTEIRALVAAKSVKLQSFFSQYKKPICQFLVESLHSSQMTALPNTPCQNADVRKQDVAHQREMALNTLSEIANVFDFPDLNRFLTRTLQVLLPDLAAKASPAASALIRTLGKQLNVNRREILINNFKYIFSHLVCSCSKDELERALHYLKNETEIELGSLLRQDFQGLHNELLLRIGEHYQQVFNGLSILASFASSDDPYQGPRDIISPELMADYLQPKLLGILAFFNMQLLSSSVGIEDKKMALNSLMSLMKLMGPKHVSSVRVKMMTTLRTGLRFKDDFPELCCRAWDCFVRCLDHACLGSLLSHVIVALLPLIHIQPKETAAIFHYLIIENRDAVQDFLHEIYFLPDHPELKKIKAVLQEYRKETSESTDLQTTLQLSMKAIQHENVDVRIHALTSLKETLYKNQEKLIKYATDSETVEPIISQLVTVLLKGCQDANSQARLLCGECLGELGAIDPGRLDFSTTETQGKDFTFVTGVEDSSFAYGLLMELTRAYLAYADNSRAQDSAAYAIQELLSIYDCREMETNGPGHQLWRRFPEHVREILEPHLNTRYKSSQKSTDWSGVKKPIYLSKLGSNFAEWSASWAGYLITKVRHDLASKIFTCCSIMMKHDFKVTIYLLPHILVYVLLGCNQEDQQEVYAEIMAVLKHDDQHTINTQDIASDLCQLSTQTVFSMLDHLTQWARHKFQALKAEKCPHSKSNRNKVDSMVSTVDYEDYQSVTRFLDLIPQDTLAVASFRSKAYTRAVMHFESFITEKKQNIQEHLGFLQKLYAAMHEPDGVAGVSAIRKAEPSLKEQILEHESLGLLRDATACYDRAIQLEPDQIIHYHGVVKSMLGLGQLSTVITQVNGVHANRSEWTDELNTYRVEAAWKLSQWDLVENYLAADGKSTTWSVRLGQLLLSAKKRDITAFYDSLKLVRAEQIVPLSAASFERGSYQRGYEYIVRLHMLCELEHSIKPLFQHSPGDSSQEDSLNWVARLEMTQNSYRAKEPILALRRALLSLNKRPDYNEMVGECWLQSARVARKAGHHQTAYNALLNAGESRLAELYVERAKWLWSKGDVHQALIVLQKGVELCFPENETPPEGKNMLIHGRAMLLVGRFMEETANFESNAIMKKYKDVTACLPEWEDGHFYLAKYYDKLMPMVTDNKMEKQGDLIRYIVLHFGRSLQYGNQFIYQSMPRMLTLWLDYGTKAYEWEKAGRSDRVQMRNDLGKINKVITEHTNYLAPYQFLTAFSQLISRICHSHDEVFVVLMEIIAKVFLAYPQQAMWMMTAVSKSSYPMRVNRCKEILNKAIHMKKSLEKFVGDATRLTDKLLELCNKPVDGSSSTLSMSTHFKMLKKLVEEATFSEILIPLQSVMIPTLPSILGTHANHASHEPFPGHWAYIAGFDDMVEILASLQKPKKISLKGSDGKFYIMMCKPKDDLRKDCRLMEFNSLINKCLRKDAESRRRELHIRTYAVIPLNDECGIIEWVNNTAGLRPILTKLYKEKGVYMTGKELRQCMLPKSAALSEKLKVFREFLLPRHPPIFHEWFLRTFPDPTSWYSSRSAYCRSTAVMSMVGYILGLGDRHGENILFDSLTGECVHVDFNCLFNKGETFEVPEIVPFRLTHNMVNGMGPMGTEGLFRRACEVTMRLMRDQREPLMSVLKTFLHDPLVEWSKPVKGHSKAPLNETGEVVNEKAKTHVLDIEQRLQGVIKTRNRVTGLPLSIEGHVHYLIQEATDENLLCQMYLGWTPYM
T1 sequence (Q8WXE1 whole entry partner): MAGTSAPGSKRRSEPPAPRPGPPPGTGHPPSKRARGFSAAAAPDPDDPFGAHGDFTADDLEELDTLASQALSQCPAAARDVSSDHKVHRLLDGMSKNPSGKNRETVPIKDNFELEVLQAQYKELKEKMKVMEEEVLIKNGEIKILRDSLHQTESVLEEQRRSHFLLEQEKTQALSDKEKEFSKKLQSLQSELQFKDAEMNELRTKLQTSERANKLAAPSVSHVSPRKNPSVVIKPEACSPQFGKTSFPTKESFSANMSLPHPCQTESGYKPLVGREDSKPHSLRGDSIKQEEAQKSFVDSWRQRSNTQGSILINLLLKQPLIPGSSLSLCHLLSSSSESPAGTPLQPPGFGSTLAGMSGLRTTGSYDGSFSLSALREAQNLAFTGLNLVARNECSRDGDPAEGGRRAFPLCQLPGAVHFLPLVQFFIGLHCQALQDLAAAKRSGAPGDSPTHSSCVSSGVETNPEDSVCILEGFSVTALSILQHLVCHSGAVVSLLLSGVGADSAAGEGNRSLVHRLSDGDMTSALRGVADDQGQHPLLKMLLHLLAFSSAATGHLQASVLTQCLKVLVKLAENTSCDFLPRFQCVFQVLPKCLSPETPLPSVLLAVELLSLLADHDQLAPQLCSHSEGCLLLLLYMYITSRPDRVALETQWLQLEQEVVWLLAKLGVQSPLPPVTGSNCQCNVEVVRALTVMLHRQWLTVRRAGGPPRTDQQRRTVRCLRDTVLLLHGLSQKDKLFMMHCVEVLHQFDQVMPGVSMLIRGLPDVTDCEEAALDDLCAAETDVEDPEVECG
T1 sequence (Q92547 978-1192 partner limits assumed): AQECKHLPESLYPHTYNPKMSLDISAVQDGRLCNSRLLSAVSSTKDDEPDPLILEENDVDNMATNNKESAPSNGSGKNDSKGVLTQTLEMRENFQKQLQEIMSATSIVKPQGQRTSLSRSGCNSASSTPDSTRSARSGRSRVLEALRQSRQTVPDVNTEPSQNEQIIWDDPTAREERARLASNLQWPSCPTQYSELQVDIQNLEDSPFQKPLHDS
Description: Compounds were screened for their ability to inhibit ATR kinase, in the presence of partner proteins ATRIP, CLK2 and TopBP1, using a radioactive-phosphate incorporation assay. Assays were carried out in a mixture of 50 mM Tris/HCl (pH 7.5), 10 mM MgCl2 and 1 mM DTT. Final substrate concentrations were 10 μM [g-33P]ATP (3.5 μCi 33P ATP/nmol ATP, Perkin Elmer, Massachusetts, USA) and 800 μM target peptide (ASELPASQPQPFSAKKK, Isca Biochemicals, Cambridgeshire, UK).
Assays were carried out at 25° C. in the presence of 4 nM full-length ATR, 40 nM full-length ATRIP, 40 nM full-length CLK2 and 600 nM TopBP1(A891-S1105). An enzyme stock buffer solution was prepared containing all of the reagents listed above, with the exception of target peptide, ATP and the test compound of interest. This enzyme stock was pre-incubated for 30 minutes at 25° C. 8.5 μL of the enzyme stock solution was placed in a 96-well plate followed by addition of 5 μl of target peptide and 2 μL of DMSO stock containing serial dilutions of the test compound (typically starting from a final concentration of 1.5 μM with 2.5-fold serial dilutions) in duplicate (final DMSO concentration 7%). The plate was pre-incubated for 10 minutes at 25° C. and the reaction initiated by addition of 15 μL [g-33P]ATP (final concentration 10 μM).
The reaction was stopped after […] by the addition of 30 μL 0.3 M phosphoric acid containing 2 mM ATP. A phosphocellulose filter 96-well plate (Multiscreen HTS MAPHNOB50, Merck-Millipore, Massachusetts, USA) was pretreated with 100 μL 0.1 M phosphoric acid prior to the addition of 45 μL of the stopped assay mixture. The plate was washed with 5×200 μL 0.1 M phosphoric acid. […]
After removing mean background values for all of the data points, Ki(app) data were calculated from non-linear regression analysis of the initial rate data using the Prism software package (GraphPad Prism version 6.0c for Macintosh, GraphPad Software Inc., San Diego, USA). […]

[3] = molecular target: T2, ATR kinase (full-length ATR) (Homo sapiens, UniProt Q13535); test: ATR Inhibition Assay (radioactive-phosphate incorporation); type: biochemical; settings: Ki(app); 5 nM full-length ATR, 10 μM ATP, 25° C.
T2 construct: Assays were carried out at 25° C. in the presence of 5 nM full-length ATR
T2 sequence (Q13535 whole entry): as the sequence (Q13535 whole entry) above
Description: Compounds were screened for their ability to inhibit ATR kinase using a radioactive-phosphate incorporation assay. Assays were carried out in a mixture of 50 mM Tris/HCl (pH 7.5), 10 mM MgCl2 and 1 mM DTT. Final substrate concentrations were 10 μM [γ-33P]ATP (3 mCi 33P ATP/mmol ATP, Perkin Elmer) and 800 μM target peptide (ASELPASQPQPFSAKKK).
Assays were carried out at 25° C. in the presence of 5 nM full-length ATR. An assay stock buffer solution was prepared containing all of the reagents listed above, with the exception of ATP and the test compound of interest. 13.5 μL of the stock solution was placed in a 96 well plate followed by addition of 2 μL of DMSO stock containing serial dilutions of the test compound (typically starting from a final concentration of 15 μM with 3-fold serial dilutions) in duplicate (final DMSO concentration 7%). The plate was pre-incubated for 10 minutes at 25° C. and the reaction initiated by addition of 15 μL [γ-33P]ATP (final concentration 10 μM).
The reaction was stopped after 24 hours by the addition of 30 μL 0.1M phosphoric acid containing 2 mM ATP. A multiscreen phosphocellulose filter 96-well plate (Millipore, Cat no. MAPHN0B50) was pretreated with 100 μL 0.2M phosphoric acid prior to the addition of 45 μL of the stopped assay mixture. The plate was washed with 5×200PL 0.2M phosphoric acid. After drying, 100 μL Optiphase ‘SuperMix’ liquid scintillation cocktail (Perkin Elmer) was added to the well prior to scintillation counting (1450 Microbeta Liquid Scintillation Counter, Wallac).
After removing mean background values for all of the data points, Ki(app) data were calculated from non-linear regression analysis of the initial rate data using the Prism software package (GraphPad Prism version 3.0cx for Macintosh, GraphPad Software, San Diego Calif., USA).
Compounds with a Ki value of <0.01 μM are marked with “+++.” Compounds with a Ki value >0.01 μM but <1 μM are marked with “++.” Compounds with a Ki value >1 μM but <5 μM are marked with “+.”

Ki [2] [nM] | Ki [3] [nM] | SMILES | Cisplatin Sensitization Assay [1]
– | 10 to 1000 | CN1CCN(C(=O)C2CCN(c3c(F)cncc3NC(=O)c3c(N)nc4cccnn34)CC2)CC1 [I-A-3, 2-amino-N-(5-fluoro-4-(4-(4-methylpiperazine-1-carbonyl)piperidin-1-yl)pyridin-3-yl)imidazo[1,2-b]pyridazine-3-carboxamide] | +++ (Compounds with a Cisplatin sensitization value of <0.02 μM)
< 10 | 10 to 1000 | CN1CCC(Oc2ccncc2NC(=O)c2c(N)nc3cccnn23)CC1 [I-A-1, 2-amino-N-(4-((1-methylpiperidin-4-yl)oxy)pyridin-3-yl)imidazo[1,2-b]pyridazine-3-carboxamide] | ++ (Compounds with a Cisplatin sensitization value >0.02 μM but <0.2 μM)
– | 10 to 1000 | CN1CCC(Oc2ccncc2NC(=O)c2c(N)nc3ccc(C(F)(F)F)nn23)CC1 [I-A-2, 2-amino-N-(4-((1-methylpiperidin-4-yl)oxy)pyridin-3-yl)-6-(trifluoromethyl)imidazo[1,2-b]pyridazine-3-carboxamide] | ++ (Compounds with a Cisplatin sensitization value >0.02 μM but <0.2 μM)

Further lines, the compound ahead of its results:

SMILES | Ki [2] [nM] | Ki [3] [nM] | Cisplatin Sensitization Assay [1]
CN1CCN(C(=O)C2CCN(c3c(F)cncc3NC(=O)c3c(N)nn4ccccc34)CC2)CC1 [I-B-3, 2-amino-N-(5-fluoro-4-(4-(4-methylpiperazine-1-carbonyl)piperidin-1-yl)pyridin-3-yl)pyrazolo[1,5-a]pyridine-3-carboxamide] | < 10 | 1000 to 5000 | + (Compounds with a Cisplatin sensitization value >0.2 μM but <5 μM)
CCOc1ccncc1NC(=O)c1c(N)nn2ccccc12 [I-B-1, 2-amino-N-(4-ethoxypyridin-3-yl)pyrazolo[1,5-a]pyridine-3-carboxamide] | < 10 | 10 to 1000 | +++ (Compounds with a Cisplatin sensitization value of <0.02 μM)
